Assay results as given in patent publication US7695930B2, “Method for the detection, identification and/or quantification of microoganisms with peptidase activity using phenoxazinone derivatives as enzyme substrates” (Biomerieux, priority 2003, dated 2010).

Columns and labels:
Format in all cases: cell-based
Conditions in all cases: 50 mg/l
Candida guilliermondii = assay: Prolyl-peptidase detection on agar medium (Example 12); as to color of the colony: key: B corresponds to fluorescent blue; R corresponds to pink
Protocol: (§1) The detection media were prepared by mixing 1.68 g of yeast extract (bioMérieux), 1.4 g of biocase (bioMérieux), 1.26 g of malt extract (bioMérieux), 0.08 g of glucose (Merck) and 3.92 g of agar (bioMérieux).
(§2) 280 ml of osmosed water were added to the powder, and the mixture was then melted in a waterbath at 100° C. The product was separated into two flasks, each of 140 ml. Autoclaving was carried out at 121° C. for 15 min and the product was cooled to 50° C. in a waterbath.
(§3) L-Prolyl-7-amino-4-methylcoumarin (Pro-AMC, Bachem) was then added to the first flask as a control and L-prolyl-9-aminobenzo[a]phenoxazin-5-one (Pro-ABP, substrate of the invention obtained in Example 2, in which the amino acid is L-Proline) was then added to the second flask at the final concentration of 50 mg/l.
(§4) The size of the colonies, their coloration and also the intensity of this coloration were noted.

Candida tropicalis = assay: as above
Protocol: as §1, §2, §3, §4

Candida albicans [1] = assay: as above
Protocol: as §1, §2, §3, §4

Candida glabrata [2] = assay: as above
Protocol: as §1, §2, §3, §4

Saccharomyces cerevisiae [3] = assay: as above
Protocol: as §1, §2, §3, §4

Escherichia coli [4] = assay: as above
Protocol: as §1, §2, §3, §4

Klebsiella pneumoniae [5] = assay: as above
Protocol: as §1, §2, §3, §4

Enterococcus faecalis [6] = assay: as above
Protocol: as §1, §2, §3, §4

Trichosporon beigelii = assay: as above; as to color of the colony: key: B corresponds to fluorescent blue; R corresponds to pink
Protocol: as §1, §2, §3, §4

Candida krusei = assay: Alanyl-peptidase detection on agar medium (Example 13)
Protocol: (§5) The detection media were prepared by mixing 3.6 g of biogelytone (bioMérieux), 2.16 g of meat extract (bioMérieux), 1.26 g of malt extract (bioMérieux), 5.76 g of NaCl (Merck) and 10.8 g of agar (bioMérieux).
(§6) 720 ml of osmosed water were added to the powder, and the mixture was then melted in a waterbath at […]. The product was separated into two flasks, each of 360 ml. Autoclaving was carried out at 121° C. for 15 min and the product was cooled to […]. in a waterbath.
(§7) L-Alanyl-7-amino-4-methylcoumarin (Ala-AMC, Bachem) was then added to the first flask as a control, at the final concentration of 50 mg/l, and L-alanyl-9-aminobenzo[a]phenoxazin-5-one (Ala-ABP, substrate of the invention obtained in Example 2, in which the amino acid is L-alanine), was then added to the second flask at the final concentration of 25 mg/l.
as §4

Streptococcus agalactiae = assay: as above
Protocol: as §5, §6, §7, §4

Streptococcus pyogenes = assay: as above
Protocol: as §5, §6, §7, §4

Enterobacter cloacae = assay: as above
Protocol: as §5, §6, §7, §4

[7] = system: Staphylococcus saprophyticus; assay: as above
Protocol: as §5, §6, §7, §4

Proteus mirabilis = assay: as above
Protocol: as §5, §6, §7, §4

Staphylococcus aureus = assay: as above
Protocol: as §5, §6, §7, §4

Candida albicans [8] = assay: as above
Protocol: as §5, §6, §7, §4

Serratia liquefaciens = assay: as above
Protocol: as §5, §6, §7, §4

Enterococcus faecium = assay: as above
Protocol: as §5, §6, §7, §4

Pseudomonas aeruginosa = assay: as above
Protocol: as §5, §6, §7, §4

Serratia marcescens = assay: as above
Protocol: as §5, §6, §7, §4

Salmonella typhimurium = assay: as above
Protocol: as §5, §6, §7, §4

Candida glabrata [9] = assay: as above
Protocol: as §5, §6, §7, §4

Saccharomyces cerevisiae [10] = assay: as above
Protocol: as §5, §6, §7, §4

Escherichia coli [11] = assay: as above
Protocol: as §5, §6, §7, §4

Bacillus subtilis = assay: as above
Protocol: as §5, §6, §7, §4

Klebsiella pneumoniae [12] = assay: as above
Protocol: as §5, §6, §7, §4

Listeria innocua = assay: as above
Protocol: as §5, §6, §7, §4

[13] = system: Staphylococcus epidermidis; assay: as above
Protocol: as §5, §6, §7, §4

Hafnia alvei = assay: as above
Protocol: as §5, §6, §7, §4

Edwardsiella tarda = assay: as above
Protocol: as §5, §6, §7, §4

Enterococcus faecalis [14] = assay: as above
Protocol: as §5, §6, §7, §4

Acinetobacter baumanii = assay: as above
Protocol: as §5, §6, §7, §4

[15] = system: Corynebacterium Pseudodiphteriticum; assay: as above
Protocol: as §5, §6, §7, §4
For color of the colony in this document: key: B corresponds to fluorescent blue; R corresponds to pink.

L-prolyl-9-aminobenzo[a]phenoxazin-5-one [Pro-ABP]
2: intensity of coloration, scale 0 to 4 (Candida guilliermondii; 48 h) | intensity of coloration, scale 0 to 4 (Candida albicans [1]; 24 h) | intensity of coloration, scale 0 to 4 (Candida albicans [1]; 48 h) | intensity of coloration, scale 0 to 4 (Trichosporon beigelii; 48 h)
R: color of the colony (Candida guilliermondii; 48 h) | color of the colony (Candida albicans [1]; 24 h) | color of the colony (Candida albicans [1]; 48 h) | color of the colony (Escherichia coli [4]; 24 h) | color of the colony (Escherichia coli [4]; 48 h) | color of the colony (Trichosporon beigelii; 48 h)
3: intensity of coloration, scale 0 to 4 (Escherichia coli [4]; 48 h)
0.3 mm: growth diameter (Candida guilliermondii; 24 h)
0.5 mm: growth diameter (Saccharomyces cerevisiae [3]; 24 h) | growth diameter (Trichosporon beigelii; 24 h)
0.8 mm: growth diameter (Candida albicans [1]; 24 h)
1.2 mm: growth diameter (Candida tropicalis; 24 h)
2.5 mm: growth diameter (Candida albicans [1]; 48 h)
0.4 mm: growth diameter (Candida glabrata [2]; 24 h)
1.8 mm: growth diameter (Candida guilliermondii; 48 h) | growth diameter (Candida tropicalis; 48 h) | growth diameter (Candida glabrata [2]; 48 h) | growth diameter (Trichosporon beigelii; 48 h)
0.7 mm: growth diameter (Enterococcus faecalis [6]; 24 h) | growth diameter (Enterococcus faecalis [6]; 48 h)
3 mm: growth diameter (Escherichia coli [4]; 24 h) | growth diameter (Escherichia coli [4]; 48 h)
0.25: intensity of coloration, scale 0 to 4 (Escherichia coli [4]; 24 h)
2 mm: growth diameter (Saccharomyces cerevisiae [3]; 48 h) | growth diameter (Klebsiella pneumoniae [5]; 24 h)

Cc1cc(=O)oc2cc(NC(=O)[C@@H]3CCCN3)ccc12 [Pro-AMC, L-Prolyl-7-amino-4-methylcoumarin, reference compound]
2 mm: growth diameter (Candida tropicalis; 48 h)
3: intensity of coloration, scale 0 to 4 (Candida guilliermondii; 48 h) | intensity of coloration, scale 0 to 4 (Candida albicans [1]; 48 h)
0.25: intensity of coloration, scale 0 to 4 (Klebsiella pneumoniae [5]; 24 h) | intensity of coloration, scale 0 to 4 (Klebsiella pneumoniae [5]; 48 h) | intensity of coloration, scale 0 to 4 (Trichosporon beigelii; 24 h)
0.8 mm: growth diameter (Enterococcus faecalis [6]; 24 h)
3 mm: growth diameter (Escherichia coli [4]; 24 h) | growth diameter (Escherichia coli [4]; 48 h) | growth diameter (Klebsiella pneumoniae [5]; 48 h) | growth diameter (Trichosporon beigelii; 48 h)
0.5: intensity of coloration, scale 0 to 4 (Escherichia coli [4]; 24 h) | intensity of coloration, scale 0 to 4 (Escherichia coli [4]; 48 h)
1.7 mm: growth diameter (Candida glabrata [2]; 48 h) | growth diameter (Saccharomyces cerevisiae [3]; 48 h)
2.5 mm: growth diameter (Candida albicans [1]; 48 h) | growth diameter (Klebsiella pneumoniae [5]; 24 h)
0.3 mm: growth diameter (Candida glabrata [2]; 24 h) | growth diameter (Saccharomyces cerevisiae [3]; 24 h)
0.7 mm: growth diameter (Trichosporon beigelii; 24 h)
2: intensity of coloration, scale 0 to 4 (Candida albicans [1]; 24 h) | intensity of coloration, scale 0 to 4 (Trichosporon beigelii; 48 h)
1.8 mm: growth diameter (Candida guilliermondii; 48 h)
1.2 mm: growth diameter (Candida tropicalis; 24 h) | growth diameter (Candida albicans [1]; 24 h) | growth diameter (Enterococcus faecalis [6]; 48 h)
0.4 mm: growth diameter (Candida guilliermondii; 24 h)

Cc1cc(=O)oc2cc(NC(=O)[C@H](C)N)ccc12 [Ala-AMC, L-Alanyl-7-amino-4-methylcoumarin, reference compound]
1.2 mm: growth diameter (Klebsiella pneumoniae [12]; 24 h)
1.8 mm: growth diameter (Bacillus subtilis; 48 h) | growth diameter (Klebsiella pneumoniae [12]; 48 h)
0.8 mm: growth diameter (Enterobacter cloacae; 48 h)
1.3 mm: growth diameter (Serratia liquefaciens; 48 h) | growth diameter (Salmonella typhimurium; 24 h)
3: intensity of coloration, scale 0 to 4 (Streptococcus pyogenes; 48 h) | intensity of coloration, scale 0 to 4 (Enterobacter cloacae; 24 h) | intensity of coloration, scale 0 to 4 (Enterobacter cloacae; 48 h) | intensity of coloration, scale 0 to 4 (Proteus mirabilis; 24 h) | intensity of coloration, scale 0 to 4 (Proteus mirabilis; 48 h) | intensity of coloration, scale 0 to 4 (Serratia liquefaciens; 24 h) | intensity of coloration, scale 0 to 4 (Serratia liquefaciens; 48 h) | intensity of coloration, scale 0 to 4 (Serratia marcescens; 24 h) | intensity of coloration, scale 0 to 4 (Serratia marcescens; 48 h) | intensity of coloration, scale 0 to 4 (Salmonella typhimurium; 24 h) | intensity of coloration, scale 0 to 4 (Salmonella typhimurium; 48 h) | intensity of coloration, scale 0 to 4 (Escherichia coli [11]; 24 h) | intensity of coloration, scale 0 to 4 (Escherichia coli [11]; 48 h) | intensity of coloration, scale 0 to 4 (Klebsiella pneumoniae [12]; 24 h) | intensity of coloration, scale 0 to 4 (Klebsiella pneumoniae [12]; 48 h) | intensity of coloration, scale 0 to 4 (Hafnia alvei; 24 h) | intensity of coloration, scale 0 to 4 (Hafnia alvei; 48 h) | intensity of coloration, scale 0 to 4 (Edwardsiella tarda; 24 h) | intensity of coloration, scale 0 to 4 (Edwardsiella tarda; 48 h) | intensity of coloration, scale 0 to 4 (Acinetobacter baumanii; 24 h) | intensity of coloration, scale 0 to 4 (Acinetobacter baumanii; 48 h)
0.7 mm: growth diameter (Candida krusei; 24 h) | growth diameter (Proteus mirabilis; 24 h) | growth diameter (Proteus mirabilis; 48 h) | growth diameter (Staphylococcus aureus; 48 h) | growth diameter (Serratia liquefaciens; 24 h) | growth diameter (Serratia marcescens; 48 h) | growth diameter (Hafnia alvei; 24 h) | growth diameter (Hafnia alvei; 48 h)
0.25: intensity of coloration, scale 0 to 4 (Candida krusei; 48 h) | intensity of coloration, scale 0 to 4 (Enterococcus faecium; 48 h)
1.5 mm: growth diameter (Candida krusei; 48 h) | growth diameter (Salmonella typhimurium; 48 h) | growth diameter (Acinetobacter baumanii; 24 h) | growth diameter (Acinetobacter baumanii; 48 h)
0.1 mm: growth diameter (Streptococcus agalactiae; 24 h) | growth diameter (Streptococcus pyogenes; 24 h) | growth diameter (Saccharomyces cerevisiae [10]; 24 h)
0.4 mm: growth diameter ([7]; 48 h) | growth diameter ([13]; 48 h) | growth diameter (Edwardsiella tarda; 24 h) | growth diameter (Enterococcus faecalis [14]; 48 h) | growth diameter ([15]; 48 h)
2: intensity of coloration, scale 0 to 4 (Candida albicans [8]; 48 h) | intensity of coloration, scale 0 to 4 (Pseudomonas aeruginosa; 48 h) | intensity of coloration, scale 0 to 4 ([15]; 48 h)
1.7 mm: growth diameter (Escherichia coli [11]; 24 h) | growth diameter (Escherichia coli [11]; 48 h) | growth diameter (Bacillus subtilis; 24 h)
0.3 mm: growth diameter ([7]; 24 h) | growth diameter (Candida albicans [8]; 24 h) | growth diameter (Enterococcus faecium; 48 h) | growth diameter (Pseudomonas aeruginosa; 24 h) | growth diameter (Candida glabrata [9]; 48 h) | growth diameter (Listeria innocua; 48 h) | growth diameter ([13]; 24 h) | growth diameter (Enterococcus faecalis [14]; 24 h)
0.5 mm: growth diameter (Enterobacter cloacae; 24 h) | growth diameter (Staphylococcus aureus; 24 h) | growth diameter (Candida albicans [8]; 48 h) | growth diameter (Pseudomonas aeruginosa; 48 h) | growth diameter (Serratia marcescens; 24 h) | growth diameter (Edwardsiella tarda; 48 h)
0 mm: growth diameter ([15]; 24 h)
0.2 mm: growth diameter (Streptococcus agalactiae; 48 h) | growth diameter (Streptococcus pyogenes; 48 h) | growth diameter (Enterococcus faecium; 24 h) | growth diameter (Candida glabrata [9]; 24 h) | growth diameter (Saccharomyces cerevisiae [10]; 48 h) | growth diameter (Listeria innocua; 24 h)
